{"source": "patent US10294202B2", "about": "“Pyrrolidinones as herbicides” (FMC Corporation, priority 2013, dated 2019)", "key": {"[1]": {"test_system": "ryegrass, Italian", "assay": "Test E preemergence herbicide test", "assay_type": "in vivo, Lolium multiflorum", "design": "key: 0 = no effect, 100 = complete control", "summary_of_the_method": "(§1)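 Seeds were sown in silt loam soil and treated preemergence with test chemicals in a non-phytotoxic solvent mixture containing a surfactant. Plants were kept in a greenhouse for 21 days, then visually rated against untreated controls on a 0–100 scale (0 = no effect, 100 = complete control).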"}, "[2]": {"test_system": "ryegrass, Italian", "assay": "Test D pre-/postemergence herbicide test", "assay_type": "in vivo, Lolium multiflorum", "settings": "for Plant response rating: Postemergence, Ryegrass, Italian, scale 0 to 100; for Plant response rating, Ryegrass, Italian: Preemergence, scale 0 to 100 (0 no effect, 100 complete control)", "summary_of_the_method": "(§2)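 Greenhouse pre- and postemergence screen with surfactant-containing non-phytotoxic solvent formulations. Silt loam soil served for preemergence application, and peat/vermiculite medium for postemergence application at 2–18 cm height. Visual 0–100 control ratings versus controls were recorded 7 to 21 days later.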"}, "[3]": {"test_system": "foxtail, green", "assay": "Test D pre-/postemergence herbicide test", "assay_type": "in vivo, Setaria viridis", "settings": "for Plant response rating: Foxtail, Green, scale 0 to 100; for Plant response rating, Foxtail, Green: scale 0 to 100 (0 no effect, 100 complete control)", "summary_of_the_method": "as §2"}, "[4]": {"test_system": "pigweed", "assay": "Test D pre-/postemergence herbicide test", "assay_type": "in vivo, Amaranthus retroflexus", "settings": "for Plant response rating: Postemergence, Pigweed, scale 0 to 100; for Plant response rating, Pigweed: Preemergence, scale 0 to 100 (0 no effect, 100 complete control)", "summary_of_the_method": "as §2"}, "[5]": {"test_system": "crabgrass, Brazil", "assay": "Test E preemergence herbicide test", "assay_type": "in vivo, Digitaria horizontalis", "design": "key: 0 = no effect, 100 = complete control", "summary_of_the_method": "as §1"}, "[6]": {"test_system": "chickweed", "assay": "Test D pre-/postemergence herbicide test", "assay_type": "in vivo, Stellaria media", "settings": "for Plant response rating: Chickweed, scale 0 to 100; for Plant response rating, Chickweed: scale 0 to 100 (0 no effect, 100 complete control)", "summary_of_the_method": "as §2"}, "[7]": {"test_system": "lambsquarters", "assay": "Test E preemergence herbicide test", "assay_type": "in vivo, Chenopodium album", "design": "key: 0 = no effect, 100 = complete control", "summary_of_the_method": "as §1"}, "[8]": {"test_system": "soybean", "assay": "Test E preemergence herbicide test", "assay_type": "in vivo, Glycine max", "design": "key: 0 = no effect, 100 = complete control", "summary_of_the_method": "as §1"}, "[9]": {"test_system": "bromegrass, downy", "assay": "Test D pre-/postemergence herbicide test", "assay_type": "in vivo, Bromus tectorum", "settings": "for Plant response rating: Bromegrass, Downy, scale 0 to 100; for Plant response rating, Bromegrass, Downy: scale 0 to 100 (0 no effect, 100 complete control)", "summary_of_the_method": "as §2"}, "[10]": {"test_system": "crabgrass, large", "assay": "Test E preemergence herbicide test", "assay_type": "in vivo, Digitaria sanguinalis", "design": "key: 0 = no effect, 100 = complete control", "summary_of_the_method": "as §1"}, "[11]": {"test_system": "corn", "assay": "Test E preemergence herbicide test", "assay_type": "in vivo, Zea mays", "design": "key: 0 = no effect, 100 = complete control", "summary_of_the_method": "as §1"}}}
{"compound": "O=C1NCC(c2ccc(C(F)(F)F)cc2)C1C(=O)Nc1cccc(F)c1F", "note": "(stereo not shown) [Compound 80, N-(2,3-difluorophenyl)-2-oxo-4-[4-(trifluoromethyl)phenyl]-3-pyrrolidinecarboxamide]", "values": [{"measurement": "Plant response rating, Ryegrass, Italian", "setting": "[1]; 16 g ai/ha", "value": 0}, {"measurement": "Plant response rating, Ryegrass, Italian", "setting": "[1]; 31 g ai/ha", "value": 0}, {"measurement": "Plant response rating, Ryegrass, Italian", "setting": "[1]; 62 g ai/ha", "value": 0}, {"measurement": "Plant response rating, Ryegrass, Italian", "setting": "[1]; 125 g ai/ha", "value": 45}, {"measurement": "Plant response rating, Ryegrass, Italian", "setting": "[1]; 250 g ai/ha", "value": 60}, {"measurement": "Plant response rating", "setting": "[2]; 31 g ai/ha", "value": 0}, {"measurement": "Plant response rating", "setting": "[2]; 62 g ai/ha", "value": 0}, {"measurement": "Plant response rating", "setting": "[2]; 125 g ai/ha", "value": 0}, {"measurement": "Plant response rating", "setting": "[2]; 250 g ai/ha", "value": 0}, {"measurement": "Plant response rating, Ryegrass, Italian", "setting": "[2]; 62 g ai/ha", "value": 5}, {"measurement": "Plant response rating, Ryegrass, Italian", "setting": "[2]; 125 g ai/ha", "value": 5}, {"measurement": "Plant response rating, Ryegrass, Italian", "setting": "[2]; 31 g ai/ha", "value": 0}, {"measurement": "Plant response rating, Ryegrass, Italian", "setting": "[2]; 250 g ai/ha", "value": 15}, {"measurement": "Plant response rating", "setting": "[3]; Postemergence, 31 g ai/ha", "value": 45}, {"measurement": "Plant response rating", "setting": "[3]; Postemergence, 62 g ai/ha", "value": 45}, {"measurement": "Plant response rating", "setting": "[3]; Postemergence, 125 g ai/ha", "value": 65}, {"measurement": "Plant response rating", "setting": "[3]; Postemergence, 250 g ai/ha", "value": 65}, {"measurement": "Plant response rating, Foxtail, Green", "setting": "[3]; Preemergence, 62 g ai/ha", "value": 65}, {"measurement": "Plant response rating, Foxtail, Green", "setting": "[3]; Preemergence, 31 g ai/ha", "value": 20}, {"measurement": "Plant response rating", "setting": "[3]; Preemergence, 125 g ai/ha", "value": 75}, {"measurement": "Plant response rating", "setting": "[3]; Preemergence, 250 g ai/ha", "value": 80}, {"measurement": "Plant response rating", "setting": "[4]; 31 g ai/ha", "value": 40}, {"measurement": "Plant response rating", "setting": "[4]; 62 g ai/ha", "value": 70}, {"measurement": "Plant response rating", "setting": "[4]; 125 g ai/ha", "value": 70}, {"measurement": "Plant response rating", "setting": "[4]; 250 g ai/ha", "value": 75}, {"measurement": "Plant response rating, Pigweed", "setting": "[4]; 62 g ai/ha", "value": 10}, {"measurement": "Plant response rating, Pigweed", "setting": "[4]; 125 g ai/ha", "value": 20}, {"measurement": "Plant response rating, Pigweed", "setting": "[4]; 31 g ai/ha", "value": 5}, {"measurement": "Plant response rating, Pigweed", "setting": "[4]; 250 g ai/ha", "value": 45}, {"measurement": "Plant response rating, Crabgrass, Brazil", "setting": "[5]; 125 g ai/ha", "value": 70}, {"measurement": "Plant response rating, Crabgrass, Brazil", "setting": "[5]; 250 g ai/ha", "value": 95}, {"measurement": "Plant response rating", "setting": "[6]; Postemergence, 31 g ai/ha", "value": 35}, {"measurement": "Plant response rating", "setting": "[6]; Postemergence, 62 g ai/ha", "value": 45}, {"measurement": "Plant response rating", "setting": "[6]; Postemergence, 125 g ai/ha", "value": 85}, {"measurement": "Plant response rating", "setting": "[6]; Postemergence, 250 g ai/ha", "value": 85}, {"measurement": "Plant response rating, Chickweed", "setting": "[6]; Preemergence, 62 g ai/ha", "value": 100}, {"measurement": "Plant response rating, Chickweed", "setting": "[6]; Preemergence, 31 g ai/ha", "value": 85}, {"measurement": "Plant response rating", "setting": "[6]; Preemergence, 125 g ai/ha", "value": 100}, {"measurement": "Plant response rating", "setting": "[6]; Preemergence, 250 g ai/ha", "value": 100}, {"measurement": "Plant response rating, Lambsquarters", "setting": "[7]; 16 g ai/ha", "value": 50}, {"measurement": "Plant response rating, Lambsquarters", "setting": "[7]; 31 g ai/ha", "value": 80}, {"measurement": "Plant response rating, Lambsquarters", "setting": "[7]; 62 g ai/ha", "value": 85}, {"measurement": "Plant response rating, Lambsquarters", "setting": "[7]; 125 g ai/ha", "value": 90}, {"measurement": "Plant response rating, Lambsquarters", "setting": "[7]; 250 g ai/ha", "value": 90}, {"measurement": "Plant response rating, Soybean", "setting": "[8]; 16 g ai/ha", "value": 0}, {"measurement": "Plant response rating, Soybean", "setting": "[8]; 31 g ai/ha", "value": 0}, {"measurement": "Plant response rating, Soybean", "setting": "[8]; 62 g ai/ha", "value": 0}, {"measurement": "Plant response rating, Soybean", "setting": "[8]; 125 g ai/ha", "value": 0}, {"measurement": "Plant response rating, Soybean", "setting": "[8]; 250 g ai/ha", "value": 40}, {"measurement": "Plant response rating", "setting": "[9]; Postemergence, 31 g ai/ha", "value": 15}, {"measurement": "Plant response rating", "setting": "[9]; Postemergence, 62 g ai/ha", "value": 15}, {"measurement": "Plant response rating", "setting": "[9]; Postemergence, 125 g ai/ha", "value": 20}, {"measurement": "Plant response rating", "setting": "[9]; Postemergence, 250 g ai/ha", "value": 20}, {"measurement": "Plant response rating, Bromegrass, Downy", "setting": "[9]; Preemergence, 62 g ai/ha", "value": 5}, {"measurement": "Plant response rating, Bromegrass, Downy", "setting": "[9]; Preemergence, 31 g ai/ha", "value": 0}, {"measurement": "Plant response rating", "setting": "[9]; Preemergence, 125 g ai/ha", "value": 5}, {"measurement": "Plant response rating", "setting": "[9]; Preemergence, 250 g ai/ha", "value": 10}, {"measurement": "Plant response rating, Crabgrass, Large", "setting": "[10]; 16 g ai/ha", "value": 50}, {"measurement": "Plant response rating, Crabgrass, Large", "setting": "[10]; 31 g ai/ha", "value": 90}, {"measurement": "Plant response rating, Crabgrass, Large", "setting": "[10]; 62 g ai/ha", "value": 95}, {"measurement": "Plant response rating, Crabgrass, Large", "setting": "[10]; 125 g ai/ha", "value": 95}, {"measurement": "Plant response rating, Crabgrass, Large", "setting": "[10]; 250 g ai/ha", "value": 95}, {"measurement": "Plant response rating, Corn", "setting": "[11]; 16 g ai/ha", "value": 0}, {"measurement": "Plant response rating, Corn", "setting": "[11]; 31 g ai/ha", "value": 0}, {"measurement": "Plant response rating, Corn", "setting": "[11]; 62 g ai/ha", "value": 0}, {"measurement": "Plant response rating, Corn", "setting": "[11]; 125 g ai/ha", "value": 0}, {"measurement": "Plant response rating, Corn", "setting": "[11]; 250 g ai/ha", "value": 30}]}
